Reference: a melting point compilation (Tetko et al.; mined from patent text by program, amines drawn as free bases though some values may be those of a salt)

| melting point [°C] | SMILES |
| --- | --- |
| 90 to 92 | Cn1nc(-c2ccccc2C(F)(F)F)nc1-c1ccccc1Cl |
| 74 to 75 | COC(=O)c1cccc(OC)c1OCCC#N |
| 118 to 120 | CN1CCN(C(=O)Nc2cc(Br)ccc2N2CCc3cc(Br)ccc32)CC1 |
| 106 to 107 | CS(=O)(=O)Nc1ccccc1OCCCN1CCC(OC(c2ccccc2)c2ccccc2)CC1 |
| 183 to 185 | COC(c1ccccc1)n1cnc2c(-c3cccs3)nc(Cl)nc21 (configuration not stated) |
| 87 to 88.5 | COC(=O)CCCc1cccc(NC(=O)[C@@H](CSC(C)=O)Cc2ccccc2)c1 |
| 208 | CCCCC(C(=O)O)c1cccc(C(=O)c2cc3cc(C(=O)O)sc3s2)c1 (configuration not stated) |
| 171 | COc1ccccc1N(CC(=O)OC(C)(C)C)C(=O)CNC(=O)Nc1cccc(C)c1 |
| 48 to 52 | COCCCN1CC(=O)c2cc(Cl)sc2S1(=O)=O |
| 167 to 171 | COc1ccc(C(=O)Nc2ccccc2)cc1NCc1cccc(C(F)(F)F)c1 |
| 154 to 156 | COc1ccc2cc(CNC(=O)c3oc4ccccc4c3C)ccc2c1Br |
| 216 to 217 | Nc1nc(N)nc(C2CC3CCC2C3)n1 (configuration not stated) |
| 178 to 180 | Cn1c2c3ccccc3nc-2cc2ccccc21 |
| 103 to 105 | O=C1c2ccc(-c3cccnc3)cc2CC1Cl (configuration not stated) |
| 64 to 66 | CCOC(=O)C(C)(C)OC(=O)c1cc([N+](=O)[O-])ccc1Cl |
| 151 to 152 | CCCCc1ncc(CNC(Cc2cccs2)C(=O)O)n1Cc1ccc(C(=O)O)cc1 (configuration not stated) |
| 104 to 105 | COCCOC(=O)c1cc(NC(=O)OCc2ccccc2)ccc1OCCOC |
| 148 | O=C(C=C1OC(=O)c2cccc(Cl)c21)c1ccccc1 |
| 112 | N#Cc1ccc(NC2CCN(Cc3cccc(C(F)(F)F)c3)CC2)nc1 |
| 177 to 179 | CCOC(=O)c1ccc(C2CC(=O)N(C)C2C(O)c2ccc(-c3ccccc3)s2)cc1 (configuration not stated) |
| 130 to 135 | CCOC(=O)c1ccc(N)c(C(CCNC(=O)OC(C)(C)C)=NOC(C)=O)c1 |
| 151 | CC(C)(C)c1cc2c(c(C(=O)Nc3ccc(S(=O)(=O)C(F)(F)F)cc3Cl)c1O)CCCC2 |
| 173 to 176 | CC(C)COC(=O)Nc1cccc(Cn2ccc3cc(C(=O)O)ccc32)c1 |
| 158 | O[C@@H]1CN=C(c2ccc(Cl)c(Cl)c2)O[C@H]1c1ccccc1 (racemic) |
| 163 | COCCO[C@@H]1c2ccc3c(nc(C)n3C)c2O[C@H](c2ccccc2)[C@H]1O |
| 135 to 138 | Cc1ccc(CNC(=O)c2ccnc(NC(=O)c3ccccc3)c2)cc1 |

| melting point [°C] | SMILES |
| --- | --- |
| 169 to 170 | CCOP(=O)(OCC)c1ccc(CNC(=O)C2=Cc3cc(C4CCCCC4)ccc3CC2)cc1 |
| 88 to 90 | CCCCCCC(=N)NC(=S)Nc1cc(C(F)(F)F)ccc1Cl |
| 198 to 199 | CC1(C(=O)c2c[nH]c3ncc(Br)nc23)CCCCC1 |
| 107 to 108 | Cc1ccc([N+](=O)[O-])c(C#N)c1C |
| 69 to 71 | CCC1SC=C(C)NC1=O (configuration not stated) |
| 96 | Clc1ccc(Cc2ccc(-c3ccccc3)cc2)cc1 |
| 68 to 70 | CC(C)(C)C(=O)C=Cc1cccnc1 |
| 91.5 to 92.5 | COc1ccnc(CSCCN=C(NC#N)SC)c1 |
| 217 to 218 | Nc1ccc2c(c1)c1ccccc1n2CCC(=O)NCCO |
| 64 to 66 | COc1c(Cl)ccnc1CO |
| 177 to 180 | CS(=O)(=O)c1ccc(N2CC(CO)OC2=O)cc1 (configuration not stated) |
| 238 to 241 | COc1nc(=O)n(-c2ccc(Cl)cc2)c(=O)[nH]1 |
| 323 | CNc1nc(Nc2ccc(S(C)(=O)=O)cc2)ncc1[N+](=O)[O-] |
| 122 to 125 | CCOC(=O)c1ccc(C(Cc2ccc(F)cc2)C(=O)Nc2nc3ccccc3o2)cc1 (configuration not stated) |
| 310 to 315 | Cc1nc2cc3c(cc2n1C)C(=O)OC3=O |
| 125 to 126 | Cc1ccc(S(=O)(=O)n2ccc3c(CO)cccc32)cc1 |
| 85 | O=C/C=C/c1ccc2ccccc2n1 |
| > 250 | Nc1nc(N)nc(-c2ccc(-c3ccccc3[N+](=O)[O-])cc2)n1 |
| 88 to 92 | N#Cc1c(C(F)(F)F)nn(-c2c(Cl)cc(C(F)(F)F)cc2Cl)c1C(F)(F)F |
| 160 to 162 | COC(=O)NN=C1CCCCC1=Cc1ccc(Cl)cc1 |
| 137 to 138 | CC(C)(C)OC(=O)NC(Cc1c[nH]c2ccccc12)C(=O)C=Cc1cc(C(F)(F)F)cc(C(F)(F)F)c1 (configuration not stated) |
| 100 to 102 | COc1cc([N+](=O)[O-])c2nccc(C)c2c1OCCCc1ccccc1 |
| 61 to 62 | CC(=O)NCCCc1ccc(Cl)c2occc12 |
| 251 to 253 | CCOC(=O)c1nnc2ccc(NC(=O)OCC(Cl)(Cl)Cl)cc2c1O |
| 160 to 162 | O=C(O)CC1ON(C(=O)OCc2ccccc2)C(=O)C1N1C(=O)c2ccccc2C1=O (configuration not stated) |
| 184 to 186 | CCCC(=O)c1cc(C(=O)O)c(N)cc1C |
